This assay concerns HCV replicon (HCV1b sub-genomic, Huh-7 cells). Kind of assay: HCV replicon RNA replication assay (luciferase reporter). The following applies: Hepatitis C virus. Format: cell-based, Hepatitis C virus (CON-1 genotype b). How it is done:
All curve fitting was conducted using non-linear regression analyses from PRISM (version 4.0c, GraphPad Inc.) and the determination of Rmax and EC50 or IC50 parameters were obtained from sigmoidal dose-response phase (variable slope) equation.
The replicon HCV1b is generated based on the wild-type sequence CON-1 genotype b (GenBank accession number AJ238799; Lohmann et al., Science 1999, 285: 110-113) and expressed the sub-genomic fragment HCV NS3-NS4A-NS4B-NS5A-NS5B. The replicon contain a hybrid HCV-IRES 5′UTR, a modified luciferase reporter gene expressed as a luciferase-Ubi-neomycin phosphotransferase gene fusion and an EMCV IRES NS3-NS5B subgenomic fragment with its 3′UTR. To generate cell lines harboring the replicon, Huh-7 cells are electroporated with purified in vitro HCV1b RNA transcripts and stable cell lines are selected in the presence of G418. Stable replicon cell lines are established as described in Science 1999, 285: 110-113. The amount of luciferase expressed by selected cells directly correlates with the level of HCV RNA replication, as measured by real-time PCR.
Stable HCV replicon cells are maintained in Dulbecco's Modified Eagle Medium (DMEM) supplemented with 10% FBS and 0.5 mg/ml G418. During the assay, DMEM supplemented with 10% FBS, containing 0.5% DMSO and lacking G418 are used as assay medium. For the assay, cell stocks are trypsinized and diluted in assay medium to distribute 7,500 cells in 96-well plates. The plates are then incubated at 37° until compound addition. Serial dilutions of the test compound are prepared in 100% DMSO, before dilution in assay medium to a final DMSO concentration of 0.5% to generate a concentration dose response curves. A fixed volume from each well of the compound dilution plate is transferred to a corresponding well of the cell culture plate. The cell culture plate is incubated at 37° C. with 5% CO2 for 72 hours. Following the 72 h incubation period, the medium is aspirated from the 96-well assay plate and a volume of 50_l of lysis buffer 100 mM Tris acetate, 20 mM Mg acetate, 2 mM EGTA, 3.6 mM ATP, 1% Brij 58, 0.7%_-mercaptoethanol containing 45_g/ml luciferine (pH 7.9) is added to each well. The luciferase activity is determined using the luciferase substrate and the luminescence is detected on a MicroBeta JET 1450 LSC & Luminescence Counter (Perkin Elmer) instrument. The luminescence in each well of the culture plate is a measure of the amount of HCV RNA replication in the presence of various concentrations of inhibitor. The % inhibition is calculated for each inhibitor concentration and used to determine the concentration that results in 50% inhibition of HCV replication (EC50).

Where [1] appears, read: Huh-7, 72 h, read-out: EC50 (Range).

Read-outs that look alike come from different tables or passages of the source. Some results are limits rather than exact numbers.

As to `CC(C)OC(=O)c1ccccc1-c1ccccc1C(=O)O/N=C(\N)c1ccc2c(c1)OCO2` [Example 38, (Z)-isopropyl 2′-((((amino(benzo[d][1,3]dioxol-5-yl)methylene)amino)oxy)carbonyl)-[1,1′-biphenyl]-2-carboxylate], under setting [1], the EC50 is under 500 nM.
Same read-out and setting: the value for `CCCCN/C(=N\OC(=O)c1c(-c2ccccc2Cl)noc1C)c1ccc2c(c1)OCO2` [Example 20, (Z)—N-butyl-N′-((3-(2-chlorophenyl)-5-methylisoxazole-4-carbonyl)oxy)benzo[d][1,3]dioxole-5-carboximidamide] was under 500 nM.
Regarding `Cc1noc(C)c1C(=O)O/N=C(\N)c1ccc(-c2csnn2)cc1` [Compound 62, reference compound], the EC50 (Huh-7) was in the range of 500 to 1000 nM.
For the compound `Cc1cccc(C)c1C(=O)O/N=C(\N)Cc1ccc(OCc2ccc(F)cc2)cc1` [Example 37, (Z)—N′-((2,6-dimethylbenzoyl)oxy)-2-(4-((4-fluorobenzyl)oxy)phenyl)acetimidamide], the EC50 under setting [1] fell in the range of 500 to 1000 nM.
`Cc1cc(C)c(C(=O)O/N=C(\N)c2ccc3c(c2)OCO3)c(C)c1` [Example 26, (Z)—N′-((2,4,6-rimethylbenzoyl)oxy)benzo[d][1,3]dioxole-5-carboximidamide]: the EC50 under setting [1] was under 500 nM.
With `Cc1onc(-c2ccccc2Cl)c1C(=O)O/N=C(\N)CCc1ccc(Br)cc1` [Example 10, (Z)-3-(4-bromophenyl)-N′-((3-(2-chlorophenyl)-5-methylisoxazole-4-carbonyl)oxy)propanimidamide], the EC50 under setting [1] was under 500 nM.
Same read-out and setting: under `Cc1cccc(-c2ccccc2)c1C(=O)O/N=C(\N)c1ccc(OCc2ccc(Cl)cc2)cc1` [Example 29, (Z)-4-((4-chlorobenzyl)oxy)-N′-((3-methyl-[1,1′-biphenyl]-2-carbonyl)oxy)benzimidamide] stands under 500 nM; under `Cc1onc(-c2ccccc2Cl)c1C(=O)O/N=C(\N)c1ccc2ccccc2n1` [Example 47, (Z)—N′-((3-(2-chlorophenyl)-5-methylisoxazole-4-carbonyl)oxy)quinoline-2-carboximidamide], 1000 to 10000 nM.
For the compound `Cc1noc(C)c1C(=O)O/N=C(\N)Cc1ccc(-c2csnn2)cc1` [Compound 63, reference compound], the EC50 (Huh-7) was 500 to 1000 nM.
`N/C(=N\OC(=O)c1cccc2ccccc12)c1ccc2c(c1)OCO2` [Example 33, (Z)—N′-((1-naphthoyl)oxy)benzo[d][1,3]dioxole-5-carboximidamide]: the EC50 under setting [1] lay within 500 to 1000 nM.
On to `COc1ccccc1C/C(N)=N/OC(=O)c1c(C)cccc1C` [Example 7, (Z)—N′-((2,6-dimethylbenzoyl)oxy)-2-(2-methoxyphenyl)acetimidamide], for which the half-maximal effective concentration (EC50) under setting [1] was in the range of 500 to 1000 nM.
Same read-out and setting: under `N/C(=N\OC(=O)c1ccccc1Cc1ccccc1)c1ccc2c(c1)OCO2` [Example 44, (Z)—N′-((2-benzylbenzoyl)oxy)benzo[d][1,3]dioxole-5-carboximidamide] stands 500 to 1000 nM; under `COc1ccccc1C/C(N)=N/OC(=O)c1ccccc1-c1ccccc1C(=O)OC(C)C` [Example 28, (Z)-isopropyl 2′-((((1-amino-2-(2-methoxyphenyl)ethylidene)amino)oxy)carbonyl)-[1,1′-biphenyl]-2-carboxylate], under 500 nM; under `Cc1onc(-c2ccccc2Cl)c1C(=O)O/N=C(\N)Cc1nc2ccccc2s1` [Example 24, (Z)-2-(benzo[d]thiazol-2-yl)-N′-((3-(2-chlorophenyl)-5-methylisoxazole-4-carbonyl)oxy)acetimidamide], 1000 to 10000 nM.
With `N/C(=N\OC(=O)c1c(-c2ccccc2Cl)noc1-c1ccccc1)c1ccc2c(c1)OCO2` [Example 18, (Z)—N′-((3-(2-chlorophenyl)-5-phenylisoxazole-4-carbonyl)oxy)benzo[d][1,3]dioxole-5-carboximidamide], the EC50 under setting [1] was in the range of 500 to 1000 nM.
The same measure, in the same setting: under `Cc1ccc2ccccc2c1C(=O)O/N=C(\N)c1ccc2c(c1)OCO2` [Example 43, (Z)—N′-((2-methyl-1-naphthoyl)oxy)benzo[d][1,3]dioxole-5-carboximidamide] stands 500 to 1000 nM; under `Cc1noc(C)c1C(=O)O/N=C(\N)c1ccc(Oc2ccccc2)cc1` [Example 31, (Z)—N′-((3,5-dimethylisoxazole-4-carbonyl)oxy)-4-phenoxybenzimidamide], 1000 to 10000 nM; under `Cc1onc(-c2ccccc2Cl)c1C(=O)O/N=C(\N)c1ccc(-c2csnn2)cc1` [Example 36, (Z)—N′-((3-(2-chlorophenyl)-5-methylisoxazole-4-carbonyl)oxy)-4-(1,2,3-thiadiazol-4-yl)benzimidamide], 500 to 1000 nM.
On the same count and under the same terms, under `N/C(=N\OC(=O)c1c(-c2ccccc2Cl)noc1Cc1ccccc1)c1ccc2c(c1)OCO2` [Example 13, (Z)—N′-((5-benzyl-3-(2-chlorophenyl)isoxazole-4-carbonyl)oxy)benzo[d][1,3]dioxole-5-carboximidamide] stands under 500 nM.

As usually defined, the EC50 is the midpoint of the concentration-response curve.
